From patent publication US11946059B2, “In vivo generation of water-soluble cannabinoids in plant cell suspension cultures” (Trait Biosciences Inc., priority 2017, dated 2024)

Experiment: Cannabinoid stability in solution (time course incubation)
Assay type: physicochemical
Conditions: for Day 1 concentration in solution / Day 4 concentration in solution / Day 5 concentration in solution / Day 6 concentration in solution / Day 7 concentration in solution / Day 0 concentration in solution: room temperature, shielded from light
Experimental: Rather, levels increased slightly in all treatments. The absence of any residual UGTs were cross-check and confirmed as the samples were purified by SPE, washed and eluted in 30% and 65%-100% ethanol, respectively.
Materials and Methods Example 19: Cannabinoid Stability in Solution.
The present inventors generated a stock solution of the CBD/CBDA+glycosides mixture in water which was further diluted 10× in all treatment solutions. A 10 mL starting volume was used for all treatments, and all treatments were prepared in triplicate. […] Each sample was incubated at room temperature. Samples were stored in 15 mL polypropylene centrifuge tubes. All samples were shielded from light—tubes were wrapped in aluminum foil. Each sample was prepared in triplicate in the following buffers: water only; pH=3; pH=4; pH=7; pH=8; water only+10 mM ascorbic acid; pH=3+10 mM ascorbic acid; pH=4+10 mM ascorbic acid; pH=7+10 mM ascorbic acid; and pH=8+10 mM ascorbic acid.

[1] = Water + AA (10 mM ascorbic acid)
[2] = pH = 3 + AA (10 mM ascorbic acid)
[3] = pH = 4 + AA (10 mM ascorbic acid)
[4] = pH = 7 + AA (10 mM ascorbic acid)
[5] = pH = 8 + AA (10 mM ascorbic acid)

## C=C(C)C1CCC(C)=CC1c1c(O)cc(CCCCC)cc1OC1OC(CO)C(O)C(O)C1O (stereo not drawn) [1X CBD Gly]
[1]
  Day 1 concentration in solution: 7.99 ± 4.17 µg/mL
  Day 4 concentration in solution: 17.55 ± 5.99 µg/mL
  Day 5 concentration in solution: 19.70 ± 0.80 µg/mL
  Day 6 concentration in solution: 34.98 ± 9.28 µg/mL
  Day 7 concentration in solution: 24.99 ± 7.29 µg/mL
Water
  Day 1 concentration in solution: 1.20 ± 21.68 µg/mL
  Day 4 concentration in solution: 15.11 ± 10.77 µg/mL
  Day 5 concentration in solution: 14.60 ± 1.31 µg/mL
  Day 6 concentration in solution: 8.56 ± 7.04 µg/mL
  Day 7 concentration in solution: 23.89 ± 5.27 µg/mL
[2]
  Day 1 concentration in solution: 9.78 ± 5.27 µg/mL
  Day 4 concentration in solution: 17.99 ± 4.60 µg/mL
  Day 5 concentration in solution: 19.29 ± 3.26 µg/mL
  Day 6 concentration in solution: 27.67 ± 9.51 µg/mL
  Day 7 concentration in solution: 19.38 ± 0.46 µg/mL
pH = 3
  Day 1 concentration in solution: 8.83 ± 1.80 µg/mL
  Day 4 concentration in solution: 18.94 ± 4.88 µg/mL
  Day 5 concentration in solution: 18.00 ± 0.59 µg/mL
  Day 6 concentration in solution: 21.59 ± 7.97 µg/mL
  Day 7 concentration in solution: 27.06 ± 4.05 µg/mL
[3]
  Day 1 concentration in solution: 5.82 ± 3.11 µg/mL
  Day 4 concentration in solution: 17.02 ± 5.68 µg/mL
  Day 5 concentration in solution: 19.34 ± 1.90 µg/mL
  Day 6 concentration in solution: 31.67 ± 4.29 µg/mL
  Day 7 concentration in solution: 23.30 ± 3.95 µg/mL
pH = 4
  Day 1 concentration in solution: below LOQ
  Day 4 concentration in solution: 29.03 ± 8.17 µg/mL
  Day 5 concentration in solution: 18.26 ± 0.52 µg/mL
  Day 6 concentration in solution: 32.87 ± 8.08 µg/mL
  Day 7 concentration in solution: 26.96 ± 0.46 µg/mL
[4]
  Day 1 concentration in solution: 5.73 ± 4.70 µg/mL
  Day 4 concentration in solution: 19.96 ± 9.83 µg/mL
  Day 5 concentration in solution: 19.05 ± 3.91 µg/mL
  Day 6 concentration in solution: 30.43 ± 4.82 µg/mL
  Day 7 concentration in solution: 39.57 ± 4.63 µg/mL
pH = 7
  Day 1 concentration in solution: 15.45 ± 0.07 µg/mL
  Day 4 concentration in solution: 19.64 ± 3.44 µg/mL
  Day 5 concentration in solution: 17.50 ± 1.63 µg/mL
  Day 6 concentration in solution: 46.80 ± 10.12 µg/mL
  Day 7 concentration in solution: 22.14 ± 6.83 µg/mL
[5]
  Day 1 concentration in solution: 1.04 ± 4.15 µg/mL
  Day 4 concentration in solution: 15.86 ± 2.63 µg/mL
  Day 5 concentration in solution: 20.14 ± 1.73 µg/mL
  Day 6 concentration in solution: 32.97 ± 1.31 µg/mL
  Day 7 concentration in solution: 37.93 ± 2.89 µg/mL
pH = 8
  Day 1 concentration in solution: 12.86 ± 4.15 µg/mL
  Day 4 concentration in solution: 26.99 ± 15.29 µg/mL
  Day 5 concentration in solution: 19.73 ± 0.55 µg/mL
  Day 6 concentration in solution: 44.10 ± 3.45 µg/mL
  Day 7 concentration in solution: 32.42 ± 8.76 µg/mL

## C=C(C)C1CCC(C)=CC1c1c(O)cc(CCCCC)cc1OC1OC(COC(C)=O)C(O)C(O)C1O (stereo not drawn) [1X CBD O-Acetyl Gly]
[1]
  Day 0 concentration in solution: 102.24 ± 12.18 µg/mL
  Day 1 concentration in solution: 204.63 ± 24.09 µg/mL
  Day 4 concentration in solution: 153.06 ± 28.19 µg/mL
  Day 5 concentration in solution: 146.60 ± 10.68 µg/mL
  Day 6 concentration in solution: 200.20 ± 37.42 µg/mL
  Day 7 concentration in solution: 167.42 ± 22.79 µg/mL
Water
  Day 0 concentration in solution: 137.46 ± 35.49 µg/mL
  Day 1 concentration in solution: 136.86 ± 139.68 µg/mL
  Day 4 concentration in solution: 160.23 ± 23.75 µg/mL
  Day 5 concentration in solution: 131.77 ± 33.91 µg/mL
  Day 6 concentration in solution: 148.36 ± 33.57 µg/mL
  Day 7 concentration in solution: 185.62 ± 22.87 µg/mL
[2]
  Day 0 concentration in solution: 110.44 ± 13.31 µg/mL
  Day 1 concentration in solution: 223.32 ± 48.67 µg/mL
  Day 4 concentration in solution: 157.19 ± 1.58 µg/mL
  Day 5 concentration in solution: 97.81 ± 29.67 µg/mL
  Day 6 concentration in solution: 190.69 ± 36.71 µg/mL
  Day 7 concentration in solution: 147.21 ± 8.07 µg/mL
pH = 3
  Day 0 concentration in solution: 126.49 ± 43.90 µg/mL
  Day 1 concentration in solution: 216.46 ± 9.61 µg/mL
  Day 4 concentration in solution: 174.88 ± 14.16 µg/mL
  Day 5 concentration in solution: 83.72 ± 35.56 µg/mL
  Day 6 concentration in solution: 175.06 ± 31.37 µg/mL
  Day 7 concentration in solution: 195.77 ± 15.07 µg/mL
[3]
  Day 0 concentration in solution: 118.27 ± 1.16 µg/mL
  Day 1 concentration in solution: 198.56 ± 24.37 µg/mL
  Day 4 concentration in solution: 144.44 ± 18.85 µg/mL
  Day 5 concentration in solution: 113.89 ± 31.15 µg/mL
  Day 6 concentration in solution: 215.72 ± 16.69 µg/mL
  Day 7 concentration in solution: 166.23 ± 17.10 µg/mL
pH = 4
  Day 0 concentration in solution: 101.60 ± 31.49 µg/mL
  Day 1 concentration in solution: 150.94 ± 27.25 µg/mL
  Day 4 concentration in solution: 225.84 ± 39.59 µg/mL
  Day 5 concentration in solution: 164.84 ± 35.61 µg/mL
  Day 6 concentration in solution: 231.03 ± 36.34 µg/mL
  Day 7 concentration in solution: 201.23 ± 6.99 µg/mL
[4]
  Day 0 concentration in solution: 108.19 ± 19.12 µg/mL
  Day 1 concentration in solution: 185.02 ± 35.46 µg/mL
  Day 4 concentration in solution: 176.48 ± 33.58 µg/mL
  Day 5 concentration in solution: 110.66 ± 48.12 µg/mL
  Day 6 concentration in solution: 205.61 ± 26.64 µg/mL
  Day 7 concentration in solution: 157.89 ± 17.21 µg/mL
pH = 7
  Day 0 concentration in solution: 107.55 ± 20.03 µg/mL
  Day 1 concentration in solution: 250.75 ± 6.23 µg/mL
  Day 4 concentration in solution: 190.05 ± 24.38 µg/mL
  Day 5 concentration in solution: 186.93 ± 5.65 µg/mL
  Day 6 concentration in solution: 267.45 ± 30.83 µg/mL
  Day 7 concentration in solution: 187.10 ± 28.07 µg/mL
[5]
  Day 0 concentration in solution: 137.53 ± 6.71 µg/mL
  Day 1 concentration in solution: 180.83 ± 33.60 µg/mL
  Day 4 concentration in solution: 152.03 ± 5.79 µg/mL
  Day 5 concentration in solution: 92.06 ± 15.47 µg/mL
  Day 6 concentration in solution: 217.66 ± 11.23 µg/mL
  Day 7 concentration in solution: 181.7 ± 29.53 µg/mL
pH = 8
  Day 0 concentration in solution: 108.41 ± 12.42 µg/mL
  Day 1 concentration in solution: 221.10 ± 16.30 µg/mL
  Day 4 concentration in solution: 174.09 ± 59.87 µg/mL
  Day 5 concentration in solution: 162.75 ± 31.35 µg/mL
  Day 6 concentration in solution: 218.64 ± 22.05 µg/mL
  Day 7 concentration in solution: 193.61 ± 21.84 µg/mL
All treatments, after day 7, room temperature
  change of level in solution over the incubation: not found to decrease in any sample after day 7
